Reference: ChEMBL document CHEMBL1926625, “Identification of benzoxazin-3-one derivatives as novel, potent, and selective nonsteroidal mineralocorticoid receptor antagonists” (J Med Chem, 2011)

Experiments:
Glucocorticoid receptor = target: T1, Glucocorticoid receptor (Homo sapiens, UniProt P04150); test: Displacement of [3H]dexomethasone from GR
T1 sequence (P04150 whole entry): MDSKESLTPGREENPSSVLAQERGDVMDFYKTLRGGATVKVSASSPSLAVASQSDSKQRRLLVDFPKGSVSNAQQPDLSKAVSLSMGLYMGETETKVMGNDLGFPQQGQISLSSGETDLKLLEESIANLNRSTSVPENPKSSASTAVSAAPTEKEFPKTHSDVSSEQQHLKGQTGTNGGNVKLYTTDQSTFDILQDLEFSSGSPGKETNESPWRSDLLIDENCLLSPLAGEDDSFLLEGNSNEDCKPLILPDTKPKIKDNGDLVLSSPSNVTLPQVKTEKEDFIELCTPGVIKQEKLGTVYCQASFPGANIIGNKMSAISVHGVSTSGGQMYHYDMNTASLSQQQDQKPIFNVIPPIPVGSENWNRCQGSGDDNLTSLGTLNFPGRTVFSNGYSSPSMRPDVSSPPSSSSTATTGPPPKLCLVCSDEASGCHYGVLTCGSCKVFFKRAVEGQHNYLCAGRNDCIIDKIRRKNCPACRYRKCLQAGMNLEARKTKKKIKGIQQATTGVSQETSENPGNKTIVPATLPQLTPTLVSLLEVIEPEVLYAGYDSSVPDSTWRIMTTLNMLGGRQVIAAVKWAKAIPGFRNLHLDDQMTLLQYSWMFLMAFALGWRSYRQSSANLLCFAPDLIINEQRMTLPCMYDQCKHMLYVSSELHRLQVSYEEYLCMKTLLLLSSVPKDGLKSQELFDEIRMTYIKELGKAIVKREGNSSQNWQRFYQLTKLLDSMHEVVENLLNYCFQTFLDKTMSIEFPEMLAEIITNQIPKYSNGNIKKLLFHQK

[1] = AUC (0 to 24 hrs) in Sprague-Dawley rat at 10 mg/kg, po; assay type: ADME, organism-based; set-up: time < 24 hr, dose 10 mg/kg, route oral; settings: plasma

- IC50 (Glucocorticoid receptor): 1800 nM
- AUC(0-t) at 24 h [1]: 3830 ng·h/mL
Structure (SMILES): Cc1cc(F)ccc1-n1nc(C(F)(F)F)cc1-c1ccc2c(c1)NC(=O)CO2
